Results published in ChEMBL document CHEMBL1201862, “PubChem BioAssay data set” (2004).
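Protocol summary: plate cells (96-well), add compound at 5 concentrations, incubate 48 h, interpolate endpoints linearly. Abbreviation: GI50, concentration required for 50% inhibition of growth.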 Active and inactive are the calls of the source. Rule as the data show it: active = GI50 up to about 1.1 µM and inactive = higher.

Legend:
Test in all cases: NCI-60 cell line screen, 48 h
M14 = tested on: M14
CAKI-1 = tested on: CAKI-1
MDA-MB-435 = tested on: MDA-MB-435
PC-3 = tested on: PC-3
T47D = tested on: T47D
TK-10 = tested on: TK-10
NCI-H23 = tested on: NCI-H23
RPMI-8226 = tested on: RPMI-8226
UO-31 = tested on: UO-31
786-0 = tested on: 786-0
LOX IMVI = tested on: LOX IMVI
SN12C = tested on: SN12C
ACHN = tested on: ACHN
NCI/ADR-RES = tested on: NCI/ADR-RES
SK-MEL-2 = tested on: SK-MEL-2
SF-539 = tested on: SF-539
M19-MEL = tested on: M19-MEL
COLO 205 = tested on: COLO 205
RXF 393 = tested on: RXF 393
NCI-H522 = tested on: NCI-H522

COC(=O)[C@@H]1c2cc3c(c(O)c2[C@@H](OC2OC(C)C(OC)C(C)(OC)C2OC)C[C@]1(C)O)C(=O)c1c(O)cc2c(c1C3=O)O[C@H]1O[C@]2(C)[C@H](O)[C@@H](N(C)C)[C@@H]1O (stereo not given in full)
GI50 (M14): 0.0317 µM (active)
GI50 (CAKI-1): 0.0419 µM (active)
GI50 (MDA-MB-435): 0.0612 µM (active)
GI50 (PC-3): 0.0468 µM (active)
GI50 (T47D): 0.0276 µM (active)
GI50 (TK-10): 0.0297 µM (active)
GI50 (NCI-H23): 0.00581 µM (active)
GI50 (RPMI-8226): 0.00243 µM (active)
GI50 (UO-31): 0.301 µM (active)
GI50 (786-0): 0.00635 µM (active)
GI50 (LOX IMVI): 0.00254 µM (active)
GI50 (SN12C): < 0.0232 µM (active)
GI50 (ACHN): 0.069 µM (active)
GI50 (NCI/ADR-RES): 0.299 µM (active)
GI50 (SK-MEL-2): 0.00337 µM (active)
GI50 (SF-539): 0.0246 µM (active)
GI50 (M19-MEL): 0.000973 µM (active)
GI50 (COLO 205): 0.00629 µM (active)
GI50 (RXF 393): 0.0132 µM (active)
GI50 (NCI-H522): 0.0138 µM (active)

Cc1c2cc[n+](C)cc2c(C)c2c1[nH]c1ccc(Cl)cc12
GI50 (M14): 5.57 µM (inactive)
GI50 (CAKI-1): 1.85 µM (inactive)
GI50 (MDA-MB-435): 5.98 µM (inactive)
GI50 (PC-3): 0.918 µM (active)
GI50 (T47D): 1.09 µM (active)
GI50 (TK-10): 6.95 µM (inactive)
GI50 (NCI-H23): 0.843 µM (active)
GI50 (RPMI-8226): 25 µM (inactive)
GI50 (UO-31): 1.51 µM (inactive)
GI50 (786-0): 0.232 µM (active)
GI50 (LOX IMVI): 4.67 µM (inactive)
GI50 (SN12C): 0.214 µM (active)
GI50 (ACHN): 3.78 µM (inactive)
GI50 (NCI/ADR-RES): 2.96 µM (inactive)
GI50 (SK-MEL-2): 2.25 µM (inactive)
GI50 (SF-539): 0.401 µM (active)
GI50 (M19-MEL): 0.993 µM (active)
GI50 (COLO 205): 0.494 µM (active)
GI50 (RXF 393): 1.18 µM (inactive)
GI50 (NCI-H522): 0.617 µM (active)

CC(=O)[O-].[Zn+].c1ccc(/C(=N\Nc2ccccn2)c2ccccn2)cc1
GI50 (M14): 0.0813 µM (active)
GI50 (CAKI-1): 0.119 µM (active)
GI50 (MDA-MB-435): 0.408 µM (active)
GI50 (PC-3): 0.03 µM (active)
GI50 (T47D): 0.00206 µM (active)
GI50 (TK-10): 0.44 µM (active)
GI50 (NCI-H23): 0.0155 µM (active)
GI50 (RPMI-8226): 0.01 µM (active)
GI50 (UO-31): 0.253 µM (active)
GI50 (786-0): 0.137 µM (active)
GI50 (LOX IMVI): 0.264 µM (active)
GI50 (SN12C): 0.0424 µM (active)
GI50 (ACHN): 0.0653 µM (active)
GI50 (NCI/ADR-RES): 0.0303 µM (active)
GI50 (SK-MEL-2): 1.33 µM (inactive)
GI50 (SF-539): 0.337 µM (active)
GI50 (M19-MEL): 0.394 µM (active)
GI50 (COLO 205): 0.00028 µM (active)
GI50 (RXF 393): 0.3 µM (active)
GI50 (NCI-H522): 0.165 µM (active)

CN1CCN(Cc2nc3cccc4c3c([n+]2[O-])-c2ccccc2-4)CC1
GI50 (M14): 23.2 µM (inactive)
GI50 (CAKI-1): 25.5 µM (inactive)
GI50 (MDA-MB-435): 15.6 µM (inactive)
GI50 (PC-3): 11.4 µM (inactive)
GI50 (T47D): 29.3 µM (inactive)
GI50 (TK-10): 43.5 µM (inactive)
GI50 (NCI-H23): 26.8 µM (inactive)
GI50 (RPMI-8226): 20.7 µM (inactive)
GI50 (UO-31): 20 µM (inactive)
GI50 (786-0): 14.4 µM (inactive)
GI50 (LOX IMVI): 16.7 µM (inactive)
GI50 (SN12C): 11.7 µM (inactive)
GI50 (ACHN): 12.2 µM (inactive)
GI50 (NCI/ADR-RES): 10.6 µM (inactive)
GI50 (SK-MEL-2): 23.1 µM (inactive)
GI50 (SF-539): 25.4 µM (inactive)
GI50 (M19-MEL): 34 µM (inactive)
GI50 (COLO 205): 16.9 µM (inactive)
GI50 (RXF 393): 10.8 µM (inactive)
GI50 (NCI-H522): 14.3 µM (inactive)
